Ten molecules from article PMC8457749, “Design, Synthesis, and Anticancer Activity Evaluation of Hybrids of Azoles and Barbituric Acids” (Iranian Journal of Pharmaceutical Research : IJPR, 2021) can be followed below.

Where two headings read alike, the source gives them in different places. Some results are limits rather than exact numbers.

One series relates to BEL-7402 cells. Description: MTT antiproliferative assay, BEL-7402. Format: cell-based, human. The note with it: Homo sapiens; for inhibition at 100 µM: read-out: Growth Inhibition at 100 μM (%) BEL-7402; for IC50: read-out: IC50 BEL-7402. The protocol:
(§1) The antiproliferative activity of the target compounds against the panel of three different human cancer cell lines, liver (BEL-7402), colorectal (HCT-116), and breast (MCF-7) cell lines was evaluated using a standard MTT-based colorimetric assay. All cell lines were obtained from the Key Laboratory of Natural Resources and Functional Molecules of the Changbai Mountain (Yanbian University) and maintained in Dulbecco’s modified Eagle’s medium (DMEM) and RPMI Media 1640 (RPMI1640), supplemented with 10% foetal bovine serum (FBS) at 37 °C in a humidified atmosphere containing 5% CO2.
(§2) The cells were plated in 96-well plates at appropriate densities to ensure exponential growth throughout the experimental period (9 × 10^3 cells per well) and then allowed to adhere for 24 h. the cells were then treated for 48 h with each compound. After 48 h of incubation, 10 μL of MTT solution was added to each well to a final concentration of 2 mg/mL. the plates were then incubated for a further 4 h. After incubation, the MTT solution was removed and 150 μL of DMSO was added to each well for coloration. The plates were shaken vigorously for 10 min at room temperature to ensure complete solubilisation. The optometric density (OD) was read on a microplate reader (EL × 800, BioTek, Highland Park, Winooski, VT, USA) at 492 nm, and the data were subsequently analysed. The percentage of cell growth inhibition was calculated from the following Equation:
(§3) Inhibitory rate (%) = [1 − (ODtreated − ODblank)/(ODcontrol − ODblank)] × 100%
(§4) To obtain the antiproliferative activity of compounds 3a-3s and 4a-4d, the compounds were selected in the same way with four serial concentrations (1, 10, 50 and 100 μM) of those compounds. The optometric density (OD) reading was then used to calculate the IC50.
Background: Formazan colour is commonly taken as a measure of viable cells.

A further series has as its system MCF-7 cells. In words: MTT antiproliferative assay, MCF-7. Format: cell-based, human. The note with it: Homo sapiens, MCF7, 48 h; for inhibition at 100 µM: read-out: Growth Inhibition at 100 μM (%) MCF-7; for IC50: read-out: IC50 MCF-7. As for the experimental part:
as §1, §2, §3, §4

The test system of another series is HCT-116 cells. In words: MTT antiproliferative assay, HCT-116. The format is cell-based, human. The note with it: Homo sapiens; for inhibition at 100 µM: read-out: Growth Inhibition at 100 μM (%) HCT-116; for IC50: read-out: IC50 HCT-116. The protocol:
as §1, §2, §3, §4

In general, inhibition refers to the relative decrease from the control value, in per cent. Usually melting point stands for the temperature, or range, at which the solid turns liquid. In the case of `O=C1NC(=O)C(=Cc2cn(-c3ccccc3Br)nn2)C(=O)N1` [Compound 3j, 5-((1-(2-bromophenyl)-1H-1,2,3-triazol-4-yl)methylene)pyrimidine-2,4,6(1H,3H,5H)-trione], the melting point was 250 °C. The inhibition at 100 µM in the series with BEL-7402 cells (Bel-7402, 48 h) amounted to 36.8 ± 2.1%. In addition, in the series with MCF-7 cells, the inhibition at 100 µM was 42.7 ± 2.6%. Also, in the series with HCT-116 cells (HCT-116, 48 h), the inhibition at 100 µM came to 46.3 ± 3.4%.
The like results for `O=C1NC(=O)C(=Cc2cn(-c3ccccc3Cl)nn2)C(=O)N1` [Compound 3e, 5-((1-(2-chlorophenyl)-1H-1,2,3-triazol-4-yl)methylene)pyrimidine-2,4,6(1H,3H,5H)-trione] were, in that order, 250 °C, 39.6 ± 4.1%, 19.8 ± 1.5% and 14.8 ± 0.9%.
One may read the IC50 as the point on the concentration scale where inhibition reaches its midpoint. As for `O=C1CC(=O)NC(=O)N1` [Barbituric acid], the inhibition at 100 µM in the series with BEL-7402 cells (Bel-7402, 48 h) was 11.7 ± 1%; in the series with MCF-7 cells, less than 5%; in the series on HCT-116 cells (HCT-116, 48 h), 14.3 ± 2.2%. The IC50 with BEL-7402 cells (Bel-7402, 48 h) was more than 100 µM; in the series on MCF-7 cells, more than 100 µM; in the series with HCT-116 cells (HCT-116, 48 h), more than 100 µM.
Molecule `Cc1nn(-c2ccccc2)c(C)c1C=C1C(=O)NC(=O)NC1=O` [Compound 4a, 5-((3,5-dimethyl-1-phenyl-1H-pyrazol-4-yl)methylene)pyrimidine-2,4,6(1H,3H,5H)-trione] returned a melting point of 250 °C. The inhibition at 100 µM in the series on BEL-7402 cells (Bel-7402, 48 h) came out at 38.7 ± 1%. Besides, the inhibition at 100 µM in the series with MCF-7 cells was less than 5%. For the same molecule, the inhibition at 100 µM in the series with HCT-116 cells (HCT-116, 48 h) turned out to be 30.9 ± 3.1%.
`COc1ccc(-n2cc(C=C3C(=O)NC(=O)NC3=O)nn2)cc1` [Compound 3o, 5-((1-(4-methoxyphenyl)-1H-1,2,3-triazol-4-yl)methylene)pyrimidine-2,4,6(1H,3H,5H)-trione] gave a melting point of 250 °C. The inhibition at 100 µM in the series on BEL-7402 cells (Bel-7402, 48 h) was 28.4 ± 3.1%. The inhibition at 100 µM with MCF-7 cells is 22.6 ± 2.7%. The inhibition at 100 µM in the series with HCT-116 cells (HCT-116, 48 h) came out at 7.9 ± 0.6%.
`Cc1nn(-c2cccc(F)c2)c(C)c1C=C1C(=O)NC(=O)NC1=O` [Compound 4b, 5-((1-(3-fluorophenyl)-3,5-dimethyl-1H-pyrazol-4-yl)methylene)pyrimidine-2,4,6(1H,3H,5H)-trione] showed a melting point of 250 °C. The inhibition at 100 µM with BEL-7402 cells (Bel-7402, 48 h) was 14.7 ± 1.2%. Further, in the series with MCF-7 cells, the inhibition at 100 µM was less than 5%. Besides, the inhibition at 100 µM in the series with HCT-116 cells (HCT-116, 48 h) is 9.1 ± 1.2%.
As to `O=C1NC(=O)C(=Cc2cn(-c3ccc(F)cc3)nn2)C(=O)N1` [Compound 3d, 5-((1-(4-fluorophenyl)-1H-1,2,3-triazol-4-yl)methylene)pyrimidine-2,4,6(1H,3H,5H)-trione], the melting point came out at 250 °C. Further, the inhibition at 100 µM in the series on BEL-7402 cells (Bel-7402, 48 h) came out at 31.9 ± 2.8%. For the same molecule, the inhibition at 100 µM in the series with MCF-7 cells is 34.1 ± 2.3%. Further, in the series on HCT-116 cells (HCT-116, 48 h), the inhibition at 100 µM was 31.6 ± 1.9%.
In turn, `COc1cccc(-n2cc(C=C3C(=O)NC(=O)NC3=O)nn2)c1` [Compound 3n, 5-((1-(3-methoxyphenyl)-1H-1,2,3-triazol-4-yl)methylene)pyrimidine-2,4,6(1H,3H,5H)-trione] showed a melting point of 250 °C. In the series with BEL-7402 cells (Bel-7402, 48 h), the inhibition at 100 µM was found to be 36.7 ± 19% and the IC50 was more than 100 µM. Further, in the series with MCF-7 cells, the inhibition at 100 µM stood at 23.3 ± 3.5% and the half-maximal inhibitory concentration (IC50) is more than 100 µM. In addition, in the series with HCT-116 cells (HCT-116, 48 h), the inhibition at 100 µM is 67.1 ± 5.6% and the half-inhibitory concentration (IC50) was determined as 30.7 ± 2.1 µM.
Turning to `O=C1NC(=O)C(=Cc2cn(Cc3ccccc3)c3ccccc23)C(=O)N1` [A, 5-((1-benzyl-1H-indol-3-yl)methylene)pyrimidine-2,4,6 (1H,3H,5H)-trione, reference compound], the inhibition at 100 µM is 19.6 ± 2.1% in the series on BEL-7402 cells (Bel-7402, 48 h); 11.8 ± 1% in the series on MCF-7 cells; 26.2 ± 1.8% in the series with HCT-116 cells (HCT-116, 48 h).
With `O=c1[nH]cc(F)c(=O)[nH]1` [Compound 5-FU, 5-fluorouracil, reference compound], the IC50 with BEL-7402 cells (Bel-7402, 48 h, MTT) is 21.3 ± 0.56 µM; with HCT-116 cells (HCT-116, 48 h, MTT), 24.8 ± 0.78 µM.
